Structures can show the parent of a compound that is named as a salt.
Target: T1, protein farnesyltransferase (Rattus norvegicus, UniProt Q02293+Q04631)
T1 construct: The enzyme is purified according to Reiss, Y., et al., Cell, 62: 81-88 (1990), utilizing steps one through three; from tissue; host or cells: rat brain
Test: Inhibition of farnesyltransferase (scintillation proximity assay, rat brain enzyme, biotin-K Ras B fragment substrate)
Format: biochemical
Settings: for % inhibition of farnesyltransferase at 1 × 10^-6 M: 1 × 10^-6 M (Table 2)
Method in brief: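 Enzyme from rat brain, partly purified (steps one to three), assayed by SPA kit using 0.1 mM final biotin-K Ras B peptide as prenyl acceptor rather than biotin-lamin. Activity given as percent inhibition.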

T1 sequence (Q02293 whole entry, one chain of several): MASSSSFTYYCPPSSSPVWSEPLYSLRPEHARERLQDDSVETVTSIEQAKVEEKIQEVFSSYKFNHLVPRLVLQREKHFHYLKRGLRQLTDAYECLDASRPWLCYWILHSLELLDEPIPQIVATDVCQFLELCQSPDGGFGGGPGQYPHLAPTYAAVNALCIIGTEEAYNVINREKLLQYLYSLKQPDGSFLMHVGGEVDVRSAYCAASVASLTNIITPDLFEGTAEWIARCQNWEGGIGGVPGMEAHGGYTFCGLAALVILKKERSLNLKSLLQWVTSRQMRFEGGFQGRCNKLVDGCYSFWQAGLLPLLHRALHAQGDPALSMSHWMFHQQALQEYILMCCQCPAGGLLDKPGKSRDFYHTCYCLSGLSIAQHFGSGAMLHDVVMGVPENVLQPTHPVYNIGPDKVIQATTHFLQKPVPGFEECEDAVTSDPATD

## CSCC[C@H](NC(=O)c1ccc(CN(Cc2cncs2)S(=O)(=O)c2ccc(C)cc2)cc1-c1ccccc1C)C(=O)O [Example 877]
1 × 10^-8 M (Table 4)
  % inhibition of farnesyltransferase at 1 × 10^-8 M: 68%

## CSCC[C@H](NC(=O)c1ccc(CN(Cc2cncs2)S(C)(=O)=O)cc1-c1ccccc1C)C(=O)O [Example 878]
  % inhibition of farnesyltransferase at 1 × 10^-6 M: 95%

## CSCC[C@H](NC(=O)c1ccc(OCCCc2ccccc2)cc1-c1ccccc1C)C(=O)[O-].[Li+] [Example 879]
  % inhibition of farnesyltransferase at 1 × 10^-6 M: 95%

## CSCC[C@H](NC(=O)c1ccc(CN(CCC2CCCCC2)C2CC2)cc1-c1ccccc1C)C(=O)O [Example 880]
1 × 10^-8 M (Table 4)
  % inhibition of farnesyltransferase at 1 × 10^-8 M: 95%

## CSCC[C@H](NC(=O)c1ccc(CN(Cc2cncs2)C2CCSCC2)cc1-c1ccccc1C)C(=O)O [Example 881]
1 × 10^-8 M (Table 4)
  % inhibition of farnesyltransferase at 1 × 10^-8 M: 69%

## CSCC[C@H](NC(=O)c1ccc(CO[C@H](CSC)CC2CCCCC2)cc1-c1ccccc1C)C(=O)O [Example 882]
1 × 10^-8 M (Table 4)
  % inhibition of farnesyltransferase at 1 × 10^-8 M: 79%

## CSCC[C@H](NC(=O)c1ccc(CO[C@H](CSC(C)(C)C)CC2CCCCC2)cc1-c1ccccc1C)C(=O)O [Example 883]
1 × 10^-8 M (Table 4)
  % inhibition of farnesyltransferase at 1 × 10^-8 M: 91%

## CSCC[C@H](NC(=O)c1ccc(CO[C@H](CSc2ccccc2)CC2CCCCC2)cc1-c1ccccc1C)C(=O)O [Example 884]
1 × 10^-8 M (Table 4)
  % inhibition of farnesyltransferase at 1 × 10^-8 M: 94%

## CSCC[C@H](NC(=O)c1ccc(CO[C@@H](CC2CCCCC2)CN2CCOCC2)cc1-c1ccccc1C)C(=O)O [Example 885]
1 × 10^-8 M (Table 4)
  % inhibition of farnesyltransferase at 1 × 10^-8 M: 95%

## CSCC[C@H](NC(=O)c1ccc(CN(C(=O)OC(C)(C)C)C(CC2CCCCC2)CC2CCCCC2)cc1-c1ccccc1C)C(=O)O [Example 886]
  % inhibition of farnesyltransferase at 1 × 10^-6 M: 35%

## CSCC[C@H](NC(=O)c1ccc(CN[C@@H](CC2CCCCC2)C(=O)N2CCCCC2)cc1-c1ccccc1C)C(=O)O [Example 887]
1 × 10^-8 M (Table 4)
  % inhibition of farnesyltransferase at 1 × 10^-8 M: 92%

## CSCC[C@H](NC(=O)c1ccc(CON=C(Cc2ccccc2)Cc2ccccc2)cc1-c1ccccc1C)C(=O)O [Example 888, N-[4-N-(1,3-Diphenylpropan-2-yl)iminooxymethyl-2-(2-methylphenyl)benzoyl]-methionine lithium salt]
read-out: % inhibition of farnesyltransferase at 1 × 10^-8 M, 1 × 10^-8 M (Table 4)
  inhibition at 0.01 µM: 86%

## CSCC[C@H](NC(=O)c1ccc(COCC(CC2CCCCC2)CC2CCCCC2)cc1-c1ccccc1C)C(=O)O [Example 889]
  % inhibition of farnesyltransferase at 1 × 10^-6 M: 95%

## CSCC[C@H](NC(=O)c1ccc(COCc2cnco2)cc1-c1ccccc1C)C(=O)[O-].[Li+] [Example 891]
1 × 10^-7 M (Table 3)
  % inhibition of farnesyltransferase at 1 × 10^-7 M: 94%

## CSCC[C@H](NC(=O)c1ccc(COCc2cnc(-c3ccccc3Cl)o2)cc1-c1ccccc1C)C(=O)[O-].[Li+] [Example 892]
1 × 10^-8 M (Table 4)
  % inhibition of farnesyltransferase at 1 × 10^-8 M: 59%

## CSCC[C@H](NC(=O)c1ccc(COCc2cnc(-c3cccc(Cl)c3)o2)cc1-c1ccccc1C)C(=O)[O-].[Li+] [Example 893]
1 × 10^-7 M (Table 3)
  % inhibition of farnesyltransferase at 1 × 10^-7 M: 87%

## CSCC[C@H](NC(=O)c1ccc(COCc2cnc(-c3ccc(Cl)cc3)o2)cc1-c1ccccc1C)C(=O)[O-].[Li+] [Example 894]
1 × 10^-7 M (Table 3)
  % inhibition of farnesyltransferase at 1 × 10^-7 M: 89%

## CSCC[C@H](NC(=O)c1ccc(COCc2cnc(C(C)(C)C)s2)cc1-c1ccccc1C)C(=O)[O-].[Li+] [Example 895]
1 × 10^-7 M (Table 3)
  % inhibition of farnesyltransferase at 1 × 10^-7 M: 92%

## COc1ncc(COCc2ccc(C(=O)N[C@@H](CCSC)C(=O)O)c(-c3ccccc3C)c2)s1 [Example 896]
1 × 10^-7 M (Table 3)
  % inhibition of farnesyltransferase at 1 × 10^-7 M: 96%

## CSCC[C@H](NC(=O)c1ccc(COCc2cnc(-c3ccccc3Cl)s2)cc1-c1ccccc1C)C(=O)[O-].[Li+] [Example 897]
1 × 10^-8 M (Table 4)
  % inhibition of farnesyltransferase at 1 × 10^-8 M: 76%

## CSCC[C@H](NC(=O)c1ccc(COCc2cnc(-c3cccc(F)c3)s2)cc1-c1ccccc1C)C(=O)[O-].[Li+] [Example 898]
1 × 10^-8 M (Table 4)
  % inhibition of farnesyltransferase at 1 × 10^-8 M: 82%

## CSCC[C@H](NC(=O)c1ccc(COCc2cnc(-c3cccc(Cl)c3)s2)cc1-c1ccccc1C)C(=O)[O-].[Li+] [Example 899]
1 × 10^-8 M (Table 4)
  % inhibition of farnesyltransferase at 1 × 10^-8 M: 88%

## CSCC[C@H](NC(=O)c1ccc(COCc2cnc(-c3ccc(F)cc3)s2)cc1-c1ccccc1C)C(=O)O [Example 900]
1 × 10^-7 M (Table 3)
  % inhibition of farnesyltransferase at 1 × 10^-7 M: 95%

## CSCC[C@H](NC(=O)c1ccc(COCc2cnc(-c3ccc(Cl)cc3)s2)cc1-c1ccccc1C)C(=O)[O-].[Li+] [Example 901]
1 × 10^-8 M (Table 4)
  % inhibition of farnesyltransferase at 1 × 10^-8 M: 84%

## CSCC[C@H](NC(=O)c1ccc(NC(=O)OCc2cncs2)cc1-c1ccccc1C)C(=O)O [Example 902]
  % inhibition of farnesyltransferase at 1 × 10^-6 M: 85%

## CSCC[C@H](NC(=O)c1ccc(COCc2cc(-c3ccc(Cl)cc3)co2)cc1-c1ccccc1C)C(=O)[O-].[Li+] [Example 904]
1 × 10^-8 M (Table 4)
  % inhibition of farnesyltransferase at 1 × 10^-8 M: 85%

## CCSC[C@H](CC(C)C)NCc1ccc(C(=O)N[C@@H](CCSC)C(=O)O)c(-c2ccccc2C)c1 [Example 905]
1 × 10^-8 M (Table 4)
  % inhibition of farnesyltransferase at 1 × 10^-8 M: 86%

## CCSC[C@H](CC(C)C)N(C)Cc1ccc(C(=O)N[C@@H](CCSC)C(=O)O)c(-c2ccccc2C)c1 [Example 906]
1 × 10^-7 M (Table 3)
  % inhibition of farnesyltransferase at 1 × 10^-7 M: 88%

## CSCC[C@H](NC(=O)c1ccc(CN(C)C(CC2CCCCC2)CC2CCCCC2)cc1-c1ccccc1C)C(=O)O [Example 907]
1 × 10^-8 M (Table 4)
  % inhibition of farnesyltransferase at 1 × 10^-8 M: 79%

## CSCC[C@H](NC(=O)c1ccc(CN(CC(C)C)C(CC2CCCCC2)CC2CCCCC2)cc1-c1ccccc1C)C(=O)O [Example 908]
  % inhibition of farnesyltransferase at 1 × 10^-6 M: 88%

## CSCC[C@H](NC(=O)c1ccc(CN(C(C)=O)C(CC2CCCCC2)CC2CCCCC2)cc1-c1ccccc1C)C(=O)O [Example 909]
1 × 10^-8 M (Table 4)
  % inhibition of farnesyltransferase at 1 × 10^-8 M: 79%

## CSCC[C@H](NC(=O)c1ccc(CN(C(=O)c2ccccc2)C(CC2CCCCC2)CC2CCCCC2)cc1-c1ccccc1C)C(=O)O [Example 910]
  % inhibition of farnesyltransferase at 1 × 10^-6 M: 42%

## CSCC[C@H](NC(=O)c1ccc(CN(C(CC2CCCCC2)CC2CCCCC2)S(=O)(=O)c2ccccc2)cc1-c1ccccc1C)C(=O)O [Example 911]
  % inhibition of farnesyltransferase at 1 × 10^-6 M: 65%

## CCCCN(CCCC)C(=O)CNCc1ccc(C(=O)N[C@@H](CCSC)C(=O)O)c(-c2ccccc2C)c1 [Example 912]
1 × 10^-7 M (Table 3)
  % inhibition of farnesyltransferase at 1 × 10^-7 M: 85%

## CCCCN(CCCC)C(=O)CN(C)Cc1ccc(C(=O)N[C@@H](CCSC)C(=O)O)c(-c2ccccc2C)c1 [Example 913]
1 × 10^-7 M (Table 3)
  % inhibition of farnesyltransferase at 1 × 10^-7 M: 89%

## CSCC[C@H](NC(=O)c1ccc(CNCC(=O)N(Cc2ccccc2)Cc2ccccc2)cc1-c1ccccc1C)C(=O)O [Example 914]
1 × 10^-7 M (Table 3)
  % inhibition of farnesyltransferase at 1 × 10^-7 M: 91%

## CCCCS(=O)(=O)N(CCC1CCCCC1)Cc1ccc(C(=O)N[C@@H](CCSC)C(=O)O)c(-c2ccccc2C)c1 [Example 916]
1 × 10^-8 M (Table 4)
  % inhibition of farnesyltransferase at 1 × 10^-8 M: 96%

## CCCCN(CCCC)Cc1ccc(C(=O)N[C@@H](CCSC)C(=O)O)c(-c2ccccc2C)c1 [Example 917]
1 × 10^-7 M (Table 3)
  % inhibition of farnesyltransferase at 1 × 10^-7 M: 78%

## CSCC[C@H](NC(=O)c1cc(Cc2ccccc2)c(COCc2ccccc2)cc1-c1ccccc1C)C(=O)O [Example 923]
  % inhibition of farnesyltransferase at 1 × 10^-6 M: 78%

## CSCC[C@H](NC(=O)c1cc(Cc2ccccc2)c(COCc2ccco2)cc1-c1ccccc1C)C(=O)O [Example 924]
  % inhibition of farnesyltransferase at 1 × 10^-6 M: 77%

## CSCC[C@H](NC(=O)c1cc(Cc2ccccc2)c(COCCCc2ccccc2)cc1-c1ccccc1C)C(=O)O [Example 925]
  % inhibition of farnesyltransferase at 1 × 10^-6 M: 87%

## CCCCS(=O)(=O)N(CCCc1ccccc1)Cc1ccc(C(=O)N[C@@H](CCSC)C(=O)O)c(-c2ccccc2C)c1 [Example 927]
1 × 10^-8 M (Table 4)
  % inhibition of farnesyltransferase at 1 × 10^-8 M: 74%

## CCCCN(CCc1ccccc1)Cc1ccc(C(=O)N[C@@H](CCSC)C(=O)O)c(-c2ccccc2C)c1 [Example 928]
1 × 10^-8 M (Table 4)
  % inhibition of farnesyltransferase at 1 × 10^-8 M: 84%

## CCCC(CCC)NOCc1ccc(C(=O)N[C@@H](CCSC)C(=O)O)c(-c2ccccc2C)c1 [Example 929, N-[4-(N-Hept-4-ylaminooxymethyl)-2-(2-methylphenyl)benzoyl]methionine]
read-out: % inhibition of farnesyltransferase at 1 × 10^-7 M, 1 × 10^-7 M (Table 3)
  inhibition at 0.1 µM: 81%

## CSCC[C@H](NC(=O)c1ccc(COCc2ccccc2Cl)cc1-c1ccccc1C)C(=O)[O-].[Li+] [Example 930]
1 × 10^-8 M (Table 4)
  % inhibition of farnesyltransferase at 1 × 10^-8 M: 66%

## COc1ccccc1COCc1ccc(C(=O)N[C@@H](CCSC)C(=O)[O-])c(-c2ccccc2C)c1.[Li+] [Example 931]
1 × 10^-7 M (Table 3)
  % inhibition of farnesyltransferase at 1 × 10^-7 M: 98%

## COc1cccc(COCc2ccc(C(=O)N[C@@H](CCSC)C(=O)[O-])c(-c3ccccc3C)c2)c1.[Li+] [Example 932]
1 × 10^-8 M (Table 4)
  % inhibition of farnesyltransferase at 1 × 10^-8 M: 60%

## CSCC[C@H](NC(=O)c1ccc(COCc2ccc(Cl)cc2)cc1-c1ccccc1C)C(=O)[O-].[Li+] [Example 933]
1 × 10^-7 M (Table 3)
  % inhibition of farnesyltransferase at 1 × 10^-7 M: 91%

## CSCC[C@H](NC(=O)c1ccc(COCc2cccc(Cl)c2)cc1-c1ccccc1C)C(=O)[O-].[Li+] [Example 934]
1 × 10^-8 M (Table 4)
  % inhibition of farnesyltransferase at 1 × 10^-8 M: 71%

## COc1ccc(COCc2ccc(C(=O)N[C@@H](CCSC)C(=O)[O-])c(-c3ccccc3C)c2)cc1.[Li+] [Example 935]
1 × 10^-7 M (Table 3)
  % inhibition of farnesyltransferase at 1 × 10^-7 M: 72%

## CSCC[C@H](NC(=O)c1ccc(CNCc2ccccc2)cc1-c1ccccc1)C(=O)O.Cl [Example 936]
  % inhibition of farnesyltransferase at 1 × 10^-6 M: 69%

## COc1ccc(CCOCc2ccc(C(=O)N[C@@H](CCSC)C(=O)O)c(-c3ccccc3C)c2)cc1 [Example 937]
  % inhibition of farnesyltransferase at 1 × 10^-6 M: 95%

## CSCC[C@H](NC(=O)c1ccc(COCc2ccccc2C(C)C)cc1-c1ccccc1C)C(=O)[O-].[Li+] [Example 938]
1 × 10^-8 M (Table 4)
  % inhibition of farnesyltransferase at 1 × 10^-8 M: 61%

## CSCC[C@H](NC(=O)c1ccc(COCc2cccc(C(C)C)c2)cc1-c1ccccc1C)C(=O)[O-].[Li+] [Example 939]
1 × 10^-8 M (Table 4)
  % inhibition of farnesyltransferase at 1 × 10^-8 M: 72%

## CSCC[C@H](NC(=O)c1ccc(COCc2ccc(C(C)C)cc2)cc1-c1ccccc1C)C(=O)[O-].[Li+] [Example 940]
1 × 10^-7 M (Table 3)
  % inhibition of farnesyltransferase at 1 × 10^-7 M: 92%

## CSCC[C@H](NC(=O)c1ccc(COCc2cccc(N(C)C)c2)cc1-c1ccccc1C)C(=O)O [Example 941]
1 × 10^-7 M (Table 3)
  % inhibition of farnesyltransferase at 1 × 10^-7 M: 90%

Source: patent publication US6221865A, “Inhibitors of protein isoprenyl transferases” (priority 1998, dated 2001)
